Assay results from patent publication US20090291071A1, “COMPOSITIONS AND METHODS FOR CONTROLLING LIPID METABOLISM” (priority 2007, published 2009).
Read-outs that look alike come from different tables or passages of the source.

Tests used:
lipoprotein [1] = assay: Inhibition of lipoprotein oxidation (heart disease model); format: biochemical; parameters: % Inhibition Vit C Alone: concentration or dose not given beside the values
Source text: Various combinations of antioxidants were studied to determine synergetic effects on lipoprotein oxidation. […] The antioxidants were used alone and together at micromolar and submolar concentrations to determine additive and […] effects on percentage inhibition of lipoprotein oxidation. A result when used together which is greater than the sum of this effects alone is considered to be a synergistic response. […] (Upper Panel) and Grow C (a natural Vitamin C extract) (Lower Panel).

lipoprotein [2] = assay: Glycation of lipoprotein by sugars; format: biochemical; details: for glycation of the lipoprotein by glucose and D-ribose: combined with glucose or D-ribose, and lipoprotein
Source text: When dried beer solids, […], Vitamin E and Vitamin C were combined with glucose or D-ribose, and lipoprotein, glycation of the lipoprotein by glucose and D-ribose was inhibited. Similarly when RBC-Vitamin C or Vitamin E were combined with sorbitol and lipoprotein, glycation of the lipoprotein by sorbitol was inhibited.

LDL = details: humans, daily ingestion of 1,200 IU; cited from earlier work

For `O=C1O[C@H]([C@@H](O)CO)C(O)=C1O` [Vit C, ascorbic acid], the “% Inhibition Vit C Alone” value (lipoprotein [1]; line of Weight Ratio Vit C:DBS 0.136:1) was 0%, the “% Inhibition Vit C Alone” value (lipoprotein [1]; line of Weight Ratio Vit C:DBS 0.274:1) was 1.2% and the “% Inhibition Vit C Alone” value (lipoprotein [1]; line of Weight Ratio Vit C:DBS 0.343:1) was 2.0%. For the same molecule, the “% Inhibition Vit C Alone” value (lipoprotein [1]; line of Weight Ratio Vit C:DBS 0.520:1) was 2.6%, the “% Inhibition Vit C Alone” value (lipoprotein [1]; line of Weight Ratio Vit C:DBS 0.680:1) was 3.0% and the “glycation of the lipoprotein by glucose and D-ribose” value (lipoprotein [2]) was “inhibited”.

For `Cc1c(C)c2c(c(C)c1O)CC[C@@](C)(CCC[C@H](C)CCC[C@H](C)CCCC(C)C)O2` [E, α-tocopherol], the “% Inhibition of E Alone” value (lipoprotein [1]; E 25.6 mg) was 10.1%, the “glycation of the lipoprotein by glucose and D-ribose” value (lipoprotein [2]) was “inhibited” and the “glycation of the lipoprotein by sorbitol” value (lipoprotein [2]; combined with sorbitol and lipoprotein) was “inhibited”. The “increase of the (alpha)-tocopherol content of LDL” value (LDL) was “up to 215%” and the “increase of the resistance of LDL to oxidation” value (LDL) was no more than 175%.

With Catechin the “quantity of L-ascorbic acid remaining” value (0 h (time zero, reference)) was 100%, the “quantity of L-ascorbic acid remaining” value (6 h, test substance 0.01 mg/ml) was 14.6% and the “quantity of L-ascorbic acid remaining” value (6 h, test substance 0.1 mg/ml) was 16.7%. For the same molecule, the “quantity of L-ascorbic acid remaining” value (6 h, test substance 1.0 mg/ml) was 17.7%, the “quantity of L-ascorbic acid remaining” value (20 h, test substance 0.01 mg/ml) was 0.8% and the “quantity of L-ascorbic acid remaining” value (20 h, test substance 0.1 mg/ml) was 0.8%. For the same molecule, the “quantity of L-ascorbic acid remaining” value (20 h, test substance 1.0 mg/ml) was 1.0%, the “quantity of L-ascorbic acid remaining” value (44 h, test substance 0.01 mg/ml) was 1.4% and the “quantity of L-ascorbic acid remaining” value (44 h, test substance 0.1 mg/ml) was 1.0%. For the same molecule, the “quantity of L-ascorbic acid remaining” value (44 h, test substance 1.0 mg/ml) was 1.2%, the “quantity of L-ascorbic acid remaining” value (72 h, test substance 0.01 mg/ml) was 2.4% and the “quantity of L-ascorbic acid remaining” value (72 h, test substance 0.1 mg/ml) was 2.0%. For the same molecule, the “quantity of L-ascorbic acid remaining” value (72 h, test substance 1.0 mg/ml) was 2.2% and the “inhibition of L-ascorbic acid degradation” value (tested up to 1.0 mg/ml) was “Neither epicatechin (EPC) nor catechin (CAT) showed any inhibitory effects”.
